Test [1] concerns Xenopus tadpoles. The experiment in a line: Tadpole assay. The following applies: Xenopus tadpole assay.
The test system of test [2] is S. aureus. As to the kind of experiment: Antibiotic activity, MIC. The settings on record: Staphylococcus aureus. The test is classed as cell-based.
Test [3] concerns E. Coli. As to the kind of experiment: Antibiotic activity, MIC. The settings on record: Escherichia coli. The test is classed as cell-based.
Test [4] relates to C. albicans. The experiment in a line: Antibiotic activity, MIC. The test is classed as cell-based. The settings on record: Candida albicans.

Values after ≈ are worked out from the molar mass of the structure shown. Some results are limits rather than exact numbers.

Turning to `COC(=O)CC[C@@H](C)[C@H]1CC[C@H]2[C@@H]3C[C@@H](O)[C@H]4C[C@@H](NCCCNCCCCNCCCN)CC[C@]4(C)[C@H]3CC[C@]12C` [Compound 466], in test [1], the “functional similarity in tadpole assay” value is listed as “pharmacologic activity similar to that seen for FX 3”.
Consider `CC(C)CCC[C@@H](C)[C@H]1CC[C@H]2[C@@H]3[C@H](O)C[C@H]4C[C@H](N)CC[C@]4(C)[C@H]3CC[C@]12C` [Compound 1363], for which, in test [1], the “functional similarity in tadpole assay” value is on record as “pharmacologic activity similar to Fraction 1” and the “potency in tadpole assay relative to Fraction 1” value is on record as “potencies comparable to that of Fraction 1”.
In general, MIC refers to the lowest concentration that inhibits growth of the organism. Read a low MIC as inhibition by little substance. As to `CC(C)CCCC(C)[C@H]1CCC2C3C(CC[C@@]21C)[C@@]1(C)CC[C@H](N)C[C@@H]1C[C@H]3O` (stereo partly drawn) [drawing 55], the MIC in test [2] is 2 µg/mL (≈ 4.95 µM); in test [3] it was over 256 µg/mL; in test [4], 2 µg/mL (≈ 4.95 µM).
As for `CC(C)CCCC(C)[C@H]1CCC2C3C(CC[C@@]21C)[C@@]1(C)CC[C@@H](NCCCNCCCCN)C[C@@H]1C[C@H]3O` (stereo partly drawn) [drawing 56], the MIC is 4 µg/mL (≈ 7.52 µM) in test [2], 32 µg/mL (≈ 60.2 µM) in test [3] and 2 µg/mL (≈ 3.76 µM) in test [4].
Consider `CC(C)CCCC(C)[C@H]1CCC2C3C(CC[C@@]21C)[C@@]1(C)CC[C@H](NCCCNCCCCN)C[C@@H]1C[C@H]3O` (stereo partly drawn) [drawing 57], for which the MIC in test [2] was determined as 4 µg/mL (≈ 7.52 µM); in test [3] it was 64 µg/mL (≈ 120 µM); in test [4], 2 µg/mL (≈ 3.76 µM).
Turning to `COC(=O)CCC(C)[C@H]1CCC2C3C(CC[C@@]21C)[C@@]1(C)CC[C@H](NCCN)C[C@H]1C[C@H]3O` (stereo partly drawn) [drawing 58], the MIC in test [2] was 32 µg/mL (≈ 71.3 µM); in test [3], 64 µg/mL (≈ 143 µM); in test [4] it was 16 µg/mL (≈ 35.7 µM).
As for `COC(=O)CCC(C)[C@H]1CCC2C3C(CC[C@@]21C)[C@@]1(C)CC[C@@H](NCCN)C[C@H]1C[C@H]3O` (stereo partly drawn) [drawing 59], the MIC in test [2], in test [3] and in test [4] was 16 µg/mL (≈ 35.7 µM) each time.
In the case of `COC(=O)CCC(C)[C@H]1CCC2C3C(CC[C@@]21C)[C@@]1(C)CC[C@H](NCCCNCCCCNCCCN)C[C@H]1C[C@H]3O` (stereo partly drawn) [drawing 60], the MIC is 8 µg/mL (≈ 13.5 µM) in test [2], 64 µg/mL (≈ 108 µM) in test [3] and 2 µg/mL (≈ 3.38 µM) in test [4].
On to `CC(CCC(=O)O)[C@H]1CCC2C3C(CC[C@@]21C)[C@@]1(C)CC[C@@H](NCCCNCCCCNCCCN)C[C@H]1C[C@H]3O` (stereo partly drawn) [drawing 61], for which the results for the MIC in test [2], in test [3] and in test [4] were 8 µg/mL (≈ 13.9 µM), 64 µg/mL (≈ 111 µM) and 8 µg/mL (≈ 13.9 µM), respectively.
Consider `C[C@H](CCC(=O)O)[C@H]1CC[C@H]2[C@@H]3[C@H](O)C[C@@H]4C[C@@H](NCCCNCCCCNCCCN)CC[C@]4(C)[C@H]3CC[C@]12C` [drawing 62], for which the minimum inhibitory concentration (MIC) in test [2] amounted to 8 µg/mL (≈ 13.9 µM); in test [3], 256 µg/mL (≈ 444 µM); in test [4] it was 32 µg/mL (≈ 55.5 µM).
As to `CC(CCC(=O)O)[C@H]1CCC2C3C(CC[C@@]21C)[C@@]1(C)CC[C@H](NCCN)C[C@H]1C[C@H]3O` (stereo partly drawn) [drawing 64], the MIC is 128 µg/mL (≈ 294 µM) in test [2], 128 µg/mL (≈ 294 µM) in test [3] and 256 µg/mL (≈ 589 µM) in test [4].
Regarding `COC(=O)CCC(C)[C@H]1CCC2C3CC[C@@H]4C[C@H](NCCN)CC[C@]4(C)C3C[C@H](O)[C@@]21C` (stereo partly drawn) [drawing 65], the MIC in test [2] turned out to be 8 µg/mL (≈ 17.8 µM); in test [3], 8 µg/mL (≈ 17.8 µM); in test [4], 32 µg/mL (≈ 71.3 µM).
Turning to `CC(CCC(=O)O)[C@H]1CCC2C3CC[C@@H]4C[C@H](NCCN)CC[C@]4(C)C3C[C@H](O)[C@@]21C` (stereo partly drawn) [drawing 66], the MIC is 16 to 32 µg/mL (≈ 36.8 to 73.6 µM) in test [2], 64 µg/mL (≈ 147 µM) in test [3] and 32 µg/mL (≈ 73.6 µM) in test [4].
On to `COC(=O)CCC(C)[C@H]1CCC2C3C[C@@H](O)[C@H]4C[C@H](NCCN)CC[C@]4(C)C3CC[C@@]21C` (stereo partly drawn) [drawing 67], for which the figures for the MIC in test [2], in test [3] and in test [4] were 16 µg/mL (≈ 35.7 µM), 32 to 64 µg/mL (≈ 71.3 to 143 µM) and 8 µg/mL (≈ 17.8 µM), respectively.
Take `CC(CCC(=O)O)[C@H]1CCC2C3C[C@@H](O)[C@H]4C[C@@H](NCCN)CC[C@]4(C)C3CC[C@@]21C` (stereo partly drawn) [drawing 69]: the minimal inhibitory concentration (MIC) in test [2], in test [3] and in test [4] was over 256 µg/mL each time.
`COC(=O)CCC(C)[C@H]1CCC2C3CC[C@@H]4C[C@H](NCCCNCCCCNCCCN)CC[C@]4(C)C3C[C@H](O)[C@@]21C` (stereo partly drawn) [drawing 72]: the results for the MIC in test [2], in test [3] and in test [4] were 2 µg/mL (≈ 3.38 µM), 16 µg/mL (≈ 27.1 µM) and 8 µg/mL (≈ 13.5 µM), respectively.
As to `CC(CCC(=O)O)[C@H]1CCC2C3CC[C@@H]4C[C@H](NCCCNCCCCNCCCN)CC[C@]4(C)C3C[C@H](O)[C@@]21C` (stereo partly drawn) [drawing 73], the minimum inhibitory concentration (MIC) was 4 µg/mL (≈ 6.93 µM) in test [2], 8 to 16 µg/mL (≈ 13.9 to 27.7 µM) in test [3] and 4 µg/mL (≈ 6.93 µM) in test [4].
For `COC(=O)CCC(C)[C@H]1CCC2C3CC[C@H]4C[C@H](NCCCNCCCCNCCCN)CC[C@]4(C)C3CC[C@@]21C` (stereo partly drawn) [drawing 74], the MIC in test [2] came to 4 µg/mL (≈ 6.96 µM); in test [3], 32 µg/mL (≈ 55.7 µM); in test [4], 2 µg/mL (≈ 3.48 µM).
Turning to `COC(=O)CCC(C)[C@H]1CCC2C3CC[C@H]4C[C@@H](NCCCNCCCCNCCCN)CC[C@]4(C)C3CC[C@@]21C` (stereo partly drawn) [drawing 75], the MIC was 1 to 2 µg/mL (≈ 1.74 to 3.48 µM) in test [2], 32 µg/mL (≈ 55.7 µM) in test [3] and 2 µg/mL (≈ 3.48 µM) in test [4].
As for `COC(=O)CCC(C)[C@H]1CCC2C3C[C@@H](O)[C@H]4C[C@@H](NCCCNCCCCNCCCN)CC[C@]4(C)C3CC[C@@]21C` (stereo partly drawn) [drawing 77], the MIC in test [2] was determined as 2 µg/mL (≈ 3.38 µM); in test [3], 32 µg/mL (≈ 54.2 µM); in test [4], 2 µg/mL (≈ 3.38 µM).

The values above are taken from patent US5792635A, “Method of inhibiting the sodium/proton exchanger NHE3 and method of inhibiting growth by administering squalamine” (priority 1995, dated 1998).
